In patent US7105564B1, “Pharmaceutical composition comprising a dual antagonist against PGD2/TXA2 receptors having a [2.2.1] or [3.1.1] bicyclic skeleton” (Shionogi & Co., Ltd., priority 1999, dated 2006) one finds IC50 data, which are given here for 21 molecules.

One experiment concerns the target T1, TXA2 receptor (Homo sapiens, UniProt P21731).
T1 construct: The human platelet membrane fraction was prepared in accordance with Experiment 1 (1); from tissue; host or cells: human platelet membrane fraction from blood of healthy volunteers
T1 sequence (P21731 1-343): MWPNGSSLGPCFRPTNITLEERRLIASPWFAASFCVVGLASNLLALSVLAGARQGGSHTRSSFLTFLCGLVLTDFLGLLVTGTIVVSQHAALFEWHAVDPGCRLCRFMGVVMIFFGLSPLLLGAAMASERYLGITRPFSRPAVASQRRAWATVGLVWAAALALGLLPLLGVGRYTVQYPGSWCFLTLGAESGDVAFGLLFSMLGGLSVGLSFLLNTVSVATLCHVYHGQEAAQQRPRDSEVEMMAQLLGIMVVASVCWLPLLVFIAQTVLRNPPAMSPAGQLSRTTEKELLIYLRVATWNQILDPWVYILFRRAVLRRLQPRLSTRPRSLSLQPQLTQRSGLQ
As to the kind of experiment: Binding activity to TXA2 receptor in human platelet membrane fraction ([3H](+)-S-145 sodium salt). How it is done:
Experiment 2 Binding activity to TXA2 Receptor
(§1) (1) Preparation of Human Platelet Membrane Fraction
The human platelet membrane fraction was prepared in accordance with Experiment 1 (1).
(2) Binding to TXA2 Receptor
To a binding-reaction solution (50 mM Tris/HCl, pH 7.4, 10 mM MgCl2) (0.2 ml) were added the human platelet membrane fraction (0.05 mg) and 2 nM Sodium [^3H](+)-(5Z)-7- [3-endo- [(phenylsulfonyl)amino]bicyclo[2.2.1]hept-2-exo-yl]heptenoate (Japanese Patent Publication (Kokoku) No.79060/1993, hereinafter referred to as (+)—S—145 sodium salt) (26.4 Ci/mmol), and the mixture was reacted at room temperature for 90 min. After the reaction, the resultant mixture was filtered through a glass fiber filter paper and washed several times with cooled physiological saline, then the radioactivity retained on the filter paper was measured. The specific-binding ratio was calculated by subtracting the non-specific binding ratio (the radio activity similarly determined in the presence of 10 μM (+)—S—145 sodium salt) from the total binding.

For experiment [1], the target named is T2, PGD2 receptor (Homo sapiens, UniProt Q13258).
T2 sequence (Q13258 1-359): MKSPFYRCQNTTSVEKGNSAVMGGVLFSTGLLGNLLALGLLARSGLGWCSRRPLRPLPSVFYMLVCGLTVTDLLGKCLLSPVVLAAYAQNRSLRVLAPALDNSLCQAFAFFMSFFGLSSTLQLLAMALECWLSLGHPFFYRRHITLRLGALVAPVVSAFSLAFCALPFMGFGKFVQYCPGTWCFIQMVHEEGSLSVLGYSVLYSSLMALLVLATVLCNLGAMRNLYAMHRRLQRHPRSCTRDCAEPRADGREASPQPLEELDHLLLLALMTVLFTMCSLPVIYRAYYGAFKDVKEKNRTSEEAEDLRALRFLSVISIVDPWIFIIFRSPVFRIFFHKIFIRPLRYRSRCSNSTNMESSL
Kind of experiment: Antagonistic activity against PGD2 receptor using human platelet (inhibition of cAMP increase caused by PGD2). It is filed as cell-based. How it is done:
Experiment 3 Evaluation of Antagonistic Activity Against PGD2 Receptor Using Human Platelet
Peripheral blood was collected from a healthy volunteer using a syringe in which 1/9 volume of a citric acid/dextrose solution was previously added. The sample was subjected to centrifugation at 180 g for 10 min to obtain the supernatant (PRP: platelet rich plasma). The resultant PRP was washed 3 times with a washing buffer and the number of platelets was counted with a micro cell counter. A suspension adjusted to contain the platelets at a final concentration of 5×10^8/ml was warmed at 37° C., then subjected to the pre-treatment with 3-isobutyl-1-methylxanthine (0.5 mM) for 5 min. To the suspension was added a test compound diluted at various concentration, and 10 minutes later, 0.1 μM PGD2 was added to induce the reaction 2 minutes later, hydrochloric acid was added to terminate the reaction. The platelet was destroyed with an ultrasonic homogenizer. After centrifugation, the cAMP in the supernatant was determined by radioimmunoassay. PGD2 receptor antagonism of a drug was evaluated as follows: the inhibition rate regarding cAMP increased by the addition of PGD2 was determined at each concentration, and the concentration of the drug required for 50% inhibition (IC50) was calculated.

Experiment [2] addresses T2, PGD2 receptor. As to the kind of experiment: Binding activity to PGD2 receptor in human platelet membrane fraction ([3H]PGD2). Also on record: The platelets were homogenized using a homogenizer (Ultra-Turrax) followed by centrifugation 3 times at 20,000 rpm; from tissue; host or cells: human platelet membrane fraction from blood of healthy volunteers. The procedure:
Experiment 1 Binding activity to PGD2 Receptor
as §1
Blood was collected using a plastic syringe containing 3.8% sodium citrate from the vein of healthy volunteers (adult male and female), then put into a plastic test tube and mixed by slow-reversion. The sample was then centrifuged at 1800 rpm, for 10 min at room temperature, and the supernatant containing PRP (platelet-rich plasma) was collected. The PRP was recentrifuged at 2300 rpm, for 22 min at room temperature to obtain platelets. The platelets were homogenized using a homogenizer (Ultra-Turrax) followed by centrifugation 3 times at 20,000 rpm, 10 min at 4° C.. to obtain a platelet membrane fraction. After protein determination, the membrane fraction was adjusted to 2 mg/ml and preserved in a refrigerator at −80° C.. until using for the binding test.
(2) Binding to PGD2 Receptor
To a binding-reaction solution (50 mM Tris/HCl, pH 7.4, 5 mM MgCl2) (0.2 ml) were added the human platelet membrane fraction (0.1 mg) and 5 nM [^3H]PGD2 (115 Ci/mmol), and the mixture was reacted at 4° C. for 90 min. After the reaction, the mixture was filtered through a glass fiber filter paper and washed several times with cooled physiological saline, then the radioactivity retained on the filter paper was measured. The specific-binding ratio was calculated by subtracting the non-specific binding ratio which is the radioactivity similarly measured in the presence of 10 μM PGD2 from the total binding.

[3] abbreviates: 2 nM [3H](+)-S-145 sodium salt, room temperature, 90 min, read-out: Binding activity to TXA2 receptor in human platelet membrane fraction IC50.
The mark [4] stands for this setting: 0.1 μM PGD2, read-out: Inhibitory activity for the increase of cAMP caused by PGD2 in human platelet IC50.
The mark [5] stands for this setting: 5 nM [3H]PGD2, 4° C., 90 min, read-out: Binding activity to PGD2 receptor in human platelet membrane fraction IC50.

Where two headings read alike, the source gives them in different places.

As to `Cc1ccc(S(=O)(=O)c2ccc(C(=O)NC3C4CCC(C4)C3CC=CCCCC(=O)O)s2)s1` (stereo not drawn) [Compound I-82], the IC50 (commonly the concentration that inhibits the measured activity by half) is 1.8 nM at TXA2 receptor (setting [3]), 53 nM at PGD2 receptor [1] (setting [4]) and 32 nM at PGD2 receptor [2] (setting [5]).
The corresponding values for `CC1(C)C2CC(CC=CCCCC(=O)O)C(NC(=O)c3ccc(S(=O)(=O)c4cccs4)s3)C1C2` (stereo not drawn) [II-18] are 3.6 nM, 4 nM and 0.96 nM.
On to `O=C(O)CCCC=CCC1C2CCC(C2)C1NC(=O)c1ccc(Cc2cccs2)s1` (stereo not drawn) [Compound I-93], for which the IC50 on TXA2 receptor (setting [3]) stood at 72 nM; at PGD2 receptor [1] (setting [4]) it was 8.4 nM; on PGD2 receptor [2] (setting [5]), 7 nM.
For the molecule `O=C(O)CCCC=CCC1C2CCC(C2)C1NC(=O)c1ccc(Cc2cc3ccccc3o2)s1` (stereo not drawn) [Compound I-136], the values for the IC50 at TXA2 receptor (setting [3]), at PGD2 receptor [1] (setting [4]) and on PGD2 receptor [2] (setting [5]) were 16 nM, 15 nM and 23 nM, respectively.
The corresponding values for `O=C(O)CCCC=CCC1C2CCC(C2)C1NC(=O)c1ccc(SCc2cccs2)s1` (stereo not drawn) [Compound I-106] are 13 nM, 9.3 nM and 13 nM.
As to `O=C(O)CCCC=CCC1C2CCC(C2)C1NC(=O)c1ccc(Cc2ccsc2)s1` (stereo not drawn) [Compound I-88], the results for the IC50 at TXA2 receptor (setting [3]), at PGD2 receptor [1] (setting [4]) and on PGD2 receptor [2] (setting [5]) were 78 nM, 4.7 nM and 7.6 nM, respectively.
For `O=C(O)CCCC=CCC1C2CCC(C2)C1NC(=O)c1csc2c(Cc3cccs3)cccc12` (stereo not drawn) [Compound I-168], the IC50 was determined as 34 nM on TXA2 receptor (setting [3]), 29 nM on PGD2 receptor [1] (setting [4]) and 0.46 nM on PGD2 receptor [2] (setting [5]).
The corresponding values for `Cc1ccc(Cc2ccc(C(=O)NC3C4CCC(C4)C3CC=CCCCC(=O)O)s2)s1` (stereo not drawn) [Compound I-129] are 52 nM, 22 nM and 11 nM.
The corresponding values for `O=C(O)CCCC=CCC1C2CCC(C2)C1NC(=O)c1ccc(Cc2csc3ccccc23)s1` (stereo not drawn) [Compound I-182] are 28 nM, 11 nM and 61 nM.
For `CC1(C)[C@H]2C[C@H](C/C=C\CCCC(=O)O)[C@@H](NC(=O)c3csc4ccccc34)[C@@H]1C2` [Compound B-1, reference compound], the 50% inhibitory concentration (IC50) at TXA2 receptor (Comparative Experiment 1, read-out: Experiment 2 Antaginistic activity against TXA2 receptor IC50) stood at 3800 nM; at PGD2 receptor [1] (Comparative Experiment 1, read-out: Experiment 3 Antaginistic activity against PGD2 receptor IC50) it was 41 nM; at PGD2 receptor [2] (Comparative Experiment 1, read-out: Experiment 1 Antaginistic activity against PGD2 receptor IC50) it was 8.2 nM.
For the molecule `O=C(O)CCCC=CCC1C2CCC(C2)C1NC(=O)c1ccc(Sc2cccs2)s1` (stereo not drawn) [Compound I-59], the results for the IC50 on TXA2 receptor (setting [3]), on PGD2 receptor [1] (setting [4]) and on PGD2 receptor [2] (setting [5]) were 16 nM, 4.6 nM and 0.41 nM, respectively.
The corresponding values for `O=C(O)CCCC=CCC1C2CCC(C2)C1NC(=O)c1ccc(Sc2ccsc2)s1` (stereo not drawn) [Compound I-79] are 15 nM, 24 nM and 0.42 nM.
The corresponding values for `CC1(C)C2CC(CC=CCCCC(=O)O)C(NC(=O)c3ccc(S(=O)(=O)n4cccc4)s3)C1C2` (stereo not drawn) [II-15] are 12 nM, 11 nM and 2 nM.
The corresponding values for `CC1(C)C2CC(CC=CCCCC(=O)O)C(NC(=O)c3ccc(Sc4cccs4)s3)C1C2` (stereo not drawn) [II-21] are 14 nM, 24 nM and 0.1 nM.
As for `Cc1cc(S(=O)(=O)c2ccc(C(=O)NC3C(CC=CCCCC(=O)O)CC4CC3C4(C)C)s2)cs1` (stereo not drawn) [II-30], the IC50 came to 4 nM on TXA2 receptor (setting [3]), 45 nM at PGD2 receptor [1] (setting [4]) and 72 nM on PGD2 receptor [2] (setting [5]).
Consider `O=C(O)CCCC=CCC1C2CCC(C2)C1NC(=O)c1ccc(S(=O)(=O)c2cccs2)s1` (stereo not drawn) [Compound I-47], for which the results for the IC50 at TXA2 receptor (setting [3]), at PGD2 receptor [1] (setting [4]) and at PGD2 receptor [2] (setting [5]) were 6.2 nM, 7 nM and 4.1 nM, respectively.
Regarding `O=C(O)CCCC=CCC1C2CCC(C2)C1NC(=O)c1csc2c(Cc3ccsc3)cccc12` (stereo not drawn) [Compound I-169], the IC50 came out at 32 nM on TXA2 receptor (setting [3]), 26 nM on PGD2 receptor [1] (setting [4]) and 0.61 nM at PGD2 receptor [2] (setting [5]).
As for `O=C(O)CCCC=CCC1C2CCC(C2)C1NC(=O)c1ccc(S(=O)(=O)c2ccsc2)s1` (stereo not drawn) [Compound I-80], the results for the concentration for half-maximal inhibition (IC50) at TXA2 receptor (setting [3]), at PGD2 receptor [1] (setting [4]) and at PGD2 receptor [2] (setting [5]) were 5.2 nM, 39 nM and 6.6 nM, respectively.
`O=C(O)CCCC=CCC1C2CCC(C2)C1NC(=O)c1ccn(S(=O)(=O)c2cccs2)c1` (stereo not drawn) [Compound I-94]: the IC50 at TXA2 receptor (setting [3]) amounted to 83 nM; on PGD2 receptor [1] (setting [4]), 10 nM; at PGD2 receptor [2] (setting [5]) it was 1 nM.
The corresponding values for `O=C(O)CCCC=CCC1C2CCC(C2)C1NC(=O)c1ccc(CSc2cccs2)s1` (stereo not drawn) [Compound I-104] are 39 nM, 1.6 nM and 0.1 nM.
The corresponding values for `Cc1cccn1S(=O)(=O)c1ccc(C(=O)NC2C(CC=CCCCC(=O)O)CC3CC2C3(C)C)s1` (stereo not drawn) [II-34] are 4.4 nM, 3.9 nM and 1.5 nM.
